Results: ChEMBL document CHEMBL1151757, “Synthesis, radiosynthesis, and biological evaluation of fluorine-18-labeled 2beta-carbo(fluoroalkoxy)-3beta-(3'-((Z)-2-haloethenyl)phenyl)nortropanes: candidate radioligands for in vivo imaging of the serotonin transporter with positron emission tomography” (J Med Chem, 2008)

Columns and labels:
[1] = Ratio of drug uptake in pons to cerebellum in anesthetized cynomolgus monkey after 225 mins postinjection; assay type: ADME, organism-based, Macaca fascicularis; details: in vivo, 3.75 h
[2] = Ratio of drug uptake in pons to cerebellum in anesthetized cynomolgus monkey after 195 mins postinjection; assay type: ADME, organism-based, Macaca fascicularis; details: in vivo, 3.25 h
[3] = Ratio of drug uptake in medulla to cerebellum in anesthetized cynomolgus monkey after 135 mins postinjection; assay type: ADME, organism-based, Macaca fascicularis; details: in vivo, 2.25 h
[4] = Ratio of drug uptake in medulla to cerebellum in anesthetized cynomolgus monkey after 165 mins postinjection; assay type: ADME, organism-based, Macaca fascicularis; details: in vivo, 2.75 h
[5] = Ratio of drug uptake in medulla to cerebellum in anesthetized cynomolgus monkey after 185 mins postinjection; assay type: ADME, organism-based, Macaca fascicularis; details: in vivo
[6] = Drug uptake in anesthetized cynomolgus monkey brain occipital lobe after 9.5 mins postinjection; assay type: ADME, organism-based, Macaca fascicularis; details: in vivo
[7] = Drug uptake in anesthetized cynomolgus monkey brain occipital lobe after 22.5 mins postinjection; assay type: ADME, organism-based, Macaca fascicularis; details: in vivo, 0.375 h
[8] = Drug uptake in anesthetized cynomolgus monkey brain occipital lobe after 125 mins postinjection; assay type: ADME, organism-based, Macaca fascicularis; details: in vivo
[9] = Drug uptake in anesthetized cynomolgus monkey brain frontal lobe after 15.5 mins postinjection; assay type: ADME, organism-based, Macaca fascicularis; details: in vivo
[10] = Drug uptake in anesthetized cynomolgus monkey brain frontal lobe after 155 mins postinjection; assay type: ADME, organism-based, Macaca fascicularis; details: in vivo
[11] = Drug uptake in anesthetized cynomolgus monkey brain frontal lobe after 175 mins postinjection; assay type: ADME, organism-based, Macaca fascicularis; details: in vivo
[12] = Ratio of drug uptake in pons to cerebellum in anesthetized cynomolgus monkey after 1.5 mins postinjection; assay type: ADME, organism-based, Macaca fascicularis; details: in vivo, 0.025 h
[13] = Ratio of drug uptake in occipital lobe to cerebellum in anesthetized cynomolgus monkey after 125 mins postinjection; assay type: ADME, organism-based, Macaca fascicularis; details: in vivo
[14] = Ratio of drug uptake in occipital lobe to cerebellum in anesthetized cynomolgus monkey after 175 mins postinjection; assay type: ADME, organism-based, Macaca fascicularis; details: in vivo
[15] = Ratio of drug uptake in occipital lobe to cerebellum in anesthetized cynomolgus monkey after 235 mins postinjection; assay type: ADME, organism-based, Macaca fascicularis; details: in vivo
[16] = Ratio of drug uptake in frontal lobe to cerebellum in anesthetized cynomolgus monkey after 35 mins postinjection; assay type: ADME, organism-based, Macaca fascicularis; details: in vivo
[17] = tested on: Midbrain; assay: Drug uptake in anesthetized cynomolgus monkey brain midbrain after 135 mins postinjection; assay type: ADME, organism-based, Macaca fascicularis; details: in vivo, 2.25 h
[18] = tested on: Midbrain; assay: Drug uptake in anesthetized cynomolgus monkey brain midbrain after 155 mins postinjection; assay type: ADME, organism-based, Macaca fascicularis; details: in vivo
[19] = tested on: Pons; assay: Drug uptake in anesthetized cynomolgus monkey brain pons after 12.5 mins postinjection; assay type: ADME, organism-based, Macaca fascicularis; details: in vivo
[20] = tested on: Pons; assay: Drug uptake in anesthetized cynomolgus monkey brain pons after 75 mins postinjection; assay type: ADME, organism-based, Macaca fascicularis; details: in vivo, 1.25 h
[21] = tested on: Thalamus; assay: Drug uptake in anesthetized cynomolgus monkey brain thalamus after 195 mins postinjection; assay type: ADME, organism-based, Macaca fascicularis; details: in vivo, 3.25 h
[22] = tested on: Thalamus; assay: Drug uptake in anesthetized cynomolgus monkey brain thalamus after 205 mins postinjection; assay type: ADME, organism-based, Macaca fascicularis; details: in vivo
[23] = tested on: Midbrain; assay: Drug uptake in anesthetized cynomolgus monkey brain midbrain after 195 mins postinjection; assay type: ADME, organism-based, Macaca fascicularis; details: in vivo, 3.25 h
[24] = tested on: Pons; assay: Drug uptake in anesthetized cynomolgus monkey brain pons after 185 mins postinjection; assay type: ADME, organism-based, Macaca fascicularis; details: in vivo
[25] = Drug uptake in anesthetized cynomolgus monkey brain occipital lobe after 195 mins postinjection; assay type: ADME, organism-based, Macaca fascicularis; details: in vivo, 3.25 h
[26] = Drug uptake in anesthetized cynomolgus monkey brain cerebellum after 205 mins postinjection; assay type: ADME, organism-based, Macaca fascicularis; details: in vivo
[27] = Ratio of drug uptake in frontal lobe to cerebellum in anesthetized cynomolgus monkey after 235 mins postinjection; assay type: ADME, organism-based, Macaca fascicularis; details: in vivo
[28] = Ratio of drug uptake in caudate to cerebellum in anesthetized cynomolgus monkey after 95 mins postinjection; assay type: ADME, organism-based, Macaca fascicularis; details: in vivo
[29] = Ratio of drug uptake in caudate to cerebellum in anesthetized cynomolgus monkey after 155 mins postinjection; assay type: ADME, organism-based, Macaca fascicularis; details: in vivo
[30] = tested on: Pons; assay: Drug uptake in anesthetized cynomolgus monkey brain pons after 125 mins postinjection; assay type: ADME, organism-based, Macaca fascicularis; details: in vivo
[31] = tested on: Pons; assay: Drug uptake in anesthetized cynomolgus monkey brain pons after 155 mins postinjection; assay type: ADME, organism-based, Macaca fascicularis; details: in vivo
[32] = tested on: Medulla; assay: Drug uptake in anesthetized cynomolgus monkey brain medulla after 85 mins postinjection; assay type: ADME, organism-based, Macaca fascicularis; details: in vivo
[33] = tested on: Medulla; assay: Drug uptake in anesthetized cynomolgus monkey brain medulla after 105 mins postinjection; assay type: ADME, organism-based, Macaca fascicularis; details: in vivo, 1.75 h
[34] = Ratio of drug uptake in putamen to cerebellum in anesthetized cynomolgus monkey after 9.5 mins postinjection; assay type: ADME, organism-based, Macaca fascicularis; details: in vivo
[35] = Ratio of drug uptake in putamen to cerebellum in anesthetized cynomolgus monkey after 35 mins postinjection; assay type: ADME, organism-based, Macaca fascicularis; details: in vivo
[36] = tested on: Medulla; assay: Drug uptake in anesthetized cynomolgus monkey brain medulla after 165 mins postinjection; assay type: ADME, organism-based, Macaca fascicularis; details: in vivo, 2.75 h
[37] = Drug uptake in anesthetized cynomolgus monkey brain cerebellum after 2.5 mins postinjection; assay type: ADME, organism-based, Macaca fascicularis; details: in vivo
[38] = Drug uptake in anesthetized cynomolgus monkey brain cerebellum after 9.5 mins postinjection; assay type: ADME, organism-based, Macaca fascicularis; details: in vivo
[39] = Drug uptake in anesthetized cynomolgus monkey brain cerebellum after 12.5 mins postinjection; assay type: ADME, organism-based, Macaca fascicularis; details: in vivo
[40] = Drug uptake in anesthetized cynomolgus monkey brain cerebellum after 35 mins postinjection; assay type: ADME, organism-based, Macaca fascicularis; details: in vivo
[41] = Drug uptake in anesthetized cynomolgus monkey brain cerebellum after 65 mins postinjection; assay type: ADME, organism-based, Macaca fascicularis; details: in vivo
[42] = Drug uptake in anesthetized cynomolgus monkey brain cerebellum after 75 mins postinjection; assay type: ADME, organism-based, Macaca fascicularis; details: in vivo, 1.25 h
[43] = tested on: Medulla; assay: Drug uptake in anesthetized cynomolgus monkey brain medulla after 115 mins postinjection; assay type: ADME, organism-based, Macaca fascicularis; details: in vivo
[44] = Drug uptake in anesthetized cynomolgus monkey brain cerebellum after 175 mins postinjection; assay type: ADME, organism-based, Macaca fascicularis; details: in vivo
[45] = Ratio of drug uptake in putamen to cerebellum in anesthetized cynomolgus monkey after 65 mins postinjection; assay type: ADME, organism-based, Macaca fascicularis; details: in vivo
[46] = Ratio of drug uptake in thalamus to cerebellum in anesthetized cynomolgus monkey after 9.5 mins postinjection; assay type: ADME, organism-based, Macaca fascicularis; details: in vivo
[47] = Ratio of drug uptake in thalamus to cerebellum in anesthetized cynomolgus monkey after 27.5 mins postinjection; assay type: ADME, organism-based, Macaca fascicularis; details: in vivo
[48] = tested on: Caudate; assay: Drug uptake in anesthetized cynomolgus monkey brain caudate after 12.5 mins postinjection; assay type: ADME, organism-based, Macaca fascicularis, Caudate nucleus; details: in vivo
[49] = tested on: Caudate; assay: Drug uptake in anesthetized cynomolgus monkey brain caudate after 27.5 mins postinjection; assay type: ADME, organism-based, Macaca fascicularis, Caudate nucleus; details: in vivo
[50] = tested on: Caudate; assay: Drug uptake in anesthetized cynomolgus monkey brain caudate after 65 mins postinjection; assay type: ADME, organism-based, Macaca fascicularis, Caudate nucleus; details: in vivo
[51] = tested on: Caudate; assay: Drug uptake in anesthetized cynomolgus monkey brain caudate after 125 mins postinjection; assay type: ADME, organism-based, Macaca fascicularis, Caudate nucleus; details: in vivo
[52] = Ratio of drug uptake in occipital lobe to cerebellum in anesthetized cynomolgus monkey after 0.5 mins postinjection; assay type: ADME, organism-based, Macaca fascicularis; details: in vivo
[53] = Ratio of drug uptake in occipital lobe to cerebellum in anesthetized cynomolgus monkey after 18.5 mins postinjection; assay type: ADME, organism-based, Macaca fascicularis; details: in vivo
[54] = tested on: Thalamus; assay: Drug uptake in anesthetized cynomolgus monkey brain thalamus after 18.5 mins postinjection; assay type: ADME, organism-based, Macaca fascicularis; parameters: unit not given here; details: in vivo
[55] = tested on: Thalamus; assay: Drug uptake in anesthetized cynomolgus monkey brain thalamus after 22.5 mins postinjection; assay type: ADME, organism-based, Macaca fascicularis; parameters: unit not given here; details: in vivo, 0.375 h
[56] = tested on: Putamen; assay: Drug uptake in anesthetized cynomolgus monkey brain putamen after 55 mins postinjection; assay type: ADME, organism-based, Macaca fascicularis; parameters: unit not given here; details: in vivo
[57] = tested on: Putamen; assay: Drug uptake in anesthetized cynomolgus monkey brain putamen after 105 mins postinjection; assay type: ADME, organism-based, Macaca fascicularis; parameters: unit not given here; details: in vivo, 1.75 h
[58] = tested on: Thalamus; assay: Drug uptake in anesthetized cynomolgus monkey brain thalamus after 65 mins postinjection; assay type: ADME, organism-based, Macaca fascicularis; parameters: unit not given here; details: in vivo
[59] = tested on: Thalamus; assay: Drug uptake in anesthetized cynomolgus monkey brain thalamus after 95 mins postinjection; assay type: ADME, organism-based, Macaca fascicularis; parameters: unit not given here; details: in vivo
[60] = tested on: Thalamus; assay: Drug uptake in anesthetized cynomolgus monkey brain thalamus after 135 mins postinjection; assay type: ADME, organism-based, Macaca fascicularis; parameters: unit not given here; details: in vivo, 2.25 h
[61] = tested on: Thalamus; assay: Drug uptake in anesthetized cynomolgus monkey brain thalamus after 155 mins postinjection; assay type: ADME, organism-based, Macaca fascicularis; parameters: unit not given here; details: in vivo
[62] = tested on: Midbrain; assay: Drug uptake in anesthetized cynomolgus monkey brain midbrain after 4.5 mins postinjection; assay type: ADME, organism-based, Macaca fascicularis; parameters: unit not given here; details: in vivo, 0.075 h
[63] = tested on: Midbrain; assay: Drug uptake in anesthetized cynomolgus monkey brain midbrain after 27.5 mins postinjection; assay type: ADME, organism-based, Macaca fascicularis; parameters: unit not given here; details: in vivo
[64] = tested on: Midbrain; assay: Drug uptake in anesthetized cynomolgus monkey brain midbrain after 65 mins postinjection; assay type: ADME, organism-based, Macaca fascicularis; parameters: unit not given here; details: in vivo
[65] = Ratio of drug uptake in midbrain to cerebellum in anesthetized cynomolgus monkey after 2.5 mins postinjection; assay type: ADME, organism-based, Macaca fascicularis; details: in vivo
[66] = Ratio of drug uptake in midbrain to cerebellum in anesthetized cynomolgus monkey after 22.5 mins postinjection; assay type: ADME, organism-based, Macaca fascicularis; details: in vivo, 0.375 h

Structure (SMILES): O=C(OCCC[18F])C1C2CCC(CC1c1cccc(/C=C\I)c1)N2 (stereo unspecified)
- Ratio [1]: 1.7
- Ratio [2]: 1.5
- Ratio [3]: 1.7
- Ratio [4]: 1.9
- Ratio [5]: 1.8
- Drug uptake [6]: 3.14
- Drug uptake [7]: 3.88
- Drug uptake [8]: 2.96
- Drug uptake [9]: 2.42
- Drug uptake [10]: 2.33
- Drug uptake [11]: 2.05
- Ratio [12]: 0.8
- Ratio [13]: 1.1
- Ratio [14]: 1.1
- Ratio [15]: 1
- Ratio [16]: 0.6
- Drug uptake [17]: 4.45
- Drug uptake [18]: 4.35
- Drug uptake [19]: 3.49
- Drug uptake [20]: 4.34
- Drug uptake [21]: 3.2
- Drug uptake [22]: 3.14
- Drug uptake [23]: 3.85
- Drug uptake [24]: 3.31
- Drug uptake [25]: 2.34
- Drug uptake [26]: 1.91
- Ratio [27]: 0.9
- Ratio [28]: 1.1
- Ratio [29]: 1.4
- Drug uptake [30]: 3.82
- Drug uptake [31]: 3.52
- Drug uptake [32]: 4.79
- Drug uptake [33]: 4.34
- Ratio [34]: 0.9
- Ratio [35]: 1.1
- Drug uptake [36]: 4.45
- Drug uptake [37]: 1.12
- Drug uptake [38]: 4.24
- Drug uptake [39]: 4.52
- Drug uptake [40]: 4.74
- Drug uptake [41]: 4.08
- Drug uptake [42]: 3.87
- Drug uptake [43]: 4.59
- Drug uptake [44]: 2.37
- Ratio [45]: 1.2
- Ratio [46]: 0.8
- Ratio [47]: 1
- Drug uptake [48]: 3
- Drug uptake [49]: 3.68
- Drug uptake [50]: 3.99
- Drug uptake [51]: 3.51
- Ratio [52]: 0.8
- Ratio [53]: 0.8
- Drug uptake [54]: 4.22
- Drug uptake [55]: 4.46
- Drug uptake [56]: 5.03
- Drug uptake [57]: 4.52
- Drug uptake [58]: 4.79
- Drug uptake [59]: 4.52
- Drug uptake [60]: 4.02
- Drug uptake [61]: 3.73
- Drug uptake [62]: 2.42
- Drug uptake [63]: 5.04
- Drug uptake [64]: 4.97
- Ratio [65]: 0.9
- Ratio [66]: 1
